Reference: patent US20240269139A1, “COMPOUNDS FOR TARGETED PROTEIN DEGRADATION OF KINASES” (DANA-FARBER CANCER INSTITUTE, INC., priority 2020, published 2024)
Where “and” joins values, the source holds several entries; their conditions need not be identical. Equal values may be shown once. Read-outs that look alike come from different tables or passages of the source.

Tests used:
Type in all cases: cell-based
[1] = molecular target: protein kinases (human kinome) (Homo sapiens, UniProt Q16584)
[2] = molecular target: protein kinases (human kinome) (Homo sapiens, UniProt P50613); conditions: for logFC: CDK7 (P50613) protein abundance, degrader vs DMSO, down; for logFC CDK7: CDK7 P50613
Sequence of protein kinases (human kinome) (Homo sapiens, UniProt P50613) (P50613 whole entry): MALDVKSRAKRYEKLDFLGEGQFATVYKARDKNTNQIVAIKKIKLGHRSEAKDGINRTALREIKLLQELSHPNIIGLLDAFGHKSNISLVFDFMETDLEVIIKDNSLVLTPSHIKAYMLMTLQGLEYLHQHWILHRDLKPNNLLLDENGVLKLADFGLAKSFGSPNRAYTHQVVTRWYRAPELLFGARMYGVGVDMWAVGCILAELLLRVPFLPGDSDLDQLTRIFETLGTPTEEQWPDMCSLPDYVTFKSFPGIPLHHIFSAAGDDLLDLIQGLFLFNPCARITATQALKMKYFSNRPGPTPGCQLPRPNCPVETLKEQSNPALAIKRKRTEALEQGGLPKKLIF

[3] = molecular target: protein kinases (human kinome) (Homo sapiens, UniProt P53667); conditions: LIMK1 (P53667-1)
Sequence of protein kinases (human kinome) (Homo sapiens, UniProt P53667) (P53667 whole entry): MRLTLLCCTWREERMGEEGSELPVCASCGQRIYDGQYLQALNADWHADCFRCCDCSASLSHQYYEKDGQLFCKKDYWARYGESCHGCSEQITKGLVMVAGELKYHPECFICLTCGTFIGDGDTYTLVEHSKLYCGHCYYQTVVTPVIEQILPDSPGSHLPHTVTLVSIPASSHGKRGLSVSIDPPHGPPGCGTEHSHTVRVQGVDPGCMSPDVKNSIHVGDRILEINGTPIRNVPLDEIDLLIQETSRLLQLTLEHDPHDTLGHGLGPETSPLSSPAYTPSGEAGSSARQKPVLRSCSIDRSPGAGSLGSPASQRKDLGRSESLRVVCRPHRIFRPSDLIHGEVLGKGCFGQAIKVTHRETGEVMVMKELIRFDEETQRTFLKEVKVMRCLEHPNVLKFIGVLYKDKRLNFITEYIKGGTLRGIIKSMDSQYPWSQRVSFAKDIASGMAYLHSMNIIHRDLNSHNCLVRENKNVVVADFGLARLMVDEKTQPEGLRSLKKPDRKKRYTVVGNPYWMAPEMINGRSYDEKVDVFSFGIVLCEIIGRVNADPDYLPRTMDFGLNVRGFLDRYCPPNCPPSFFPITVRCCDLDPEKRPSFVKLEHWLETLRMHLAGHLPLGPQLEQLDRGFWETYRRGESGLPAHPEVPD

[4] = molecular target: protein kinases (human kinome) (Homo sapiens, UniProt Q00537); conditions: experiment wp016
[5] = molecular target: protein kinases (human kinome) (Homo sapiens, UniProt Q9NYV4)
Sequence of protein kinases (human kinome) (Homo sapiens, UniProt Q9NYV4) (Q9NYV4 whole entry): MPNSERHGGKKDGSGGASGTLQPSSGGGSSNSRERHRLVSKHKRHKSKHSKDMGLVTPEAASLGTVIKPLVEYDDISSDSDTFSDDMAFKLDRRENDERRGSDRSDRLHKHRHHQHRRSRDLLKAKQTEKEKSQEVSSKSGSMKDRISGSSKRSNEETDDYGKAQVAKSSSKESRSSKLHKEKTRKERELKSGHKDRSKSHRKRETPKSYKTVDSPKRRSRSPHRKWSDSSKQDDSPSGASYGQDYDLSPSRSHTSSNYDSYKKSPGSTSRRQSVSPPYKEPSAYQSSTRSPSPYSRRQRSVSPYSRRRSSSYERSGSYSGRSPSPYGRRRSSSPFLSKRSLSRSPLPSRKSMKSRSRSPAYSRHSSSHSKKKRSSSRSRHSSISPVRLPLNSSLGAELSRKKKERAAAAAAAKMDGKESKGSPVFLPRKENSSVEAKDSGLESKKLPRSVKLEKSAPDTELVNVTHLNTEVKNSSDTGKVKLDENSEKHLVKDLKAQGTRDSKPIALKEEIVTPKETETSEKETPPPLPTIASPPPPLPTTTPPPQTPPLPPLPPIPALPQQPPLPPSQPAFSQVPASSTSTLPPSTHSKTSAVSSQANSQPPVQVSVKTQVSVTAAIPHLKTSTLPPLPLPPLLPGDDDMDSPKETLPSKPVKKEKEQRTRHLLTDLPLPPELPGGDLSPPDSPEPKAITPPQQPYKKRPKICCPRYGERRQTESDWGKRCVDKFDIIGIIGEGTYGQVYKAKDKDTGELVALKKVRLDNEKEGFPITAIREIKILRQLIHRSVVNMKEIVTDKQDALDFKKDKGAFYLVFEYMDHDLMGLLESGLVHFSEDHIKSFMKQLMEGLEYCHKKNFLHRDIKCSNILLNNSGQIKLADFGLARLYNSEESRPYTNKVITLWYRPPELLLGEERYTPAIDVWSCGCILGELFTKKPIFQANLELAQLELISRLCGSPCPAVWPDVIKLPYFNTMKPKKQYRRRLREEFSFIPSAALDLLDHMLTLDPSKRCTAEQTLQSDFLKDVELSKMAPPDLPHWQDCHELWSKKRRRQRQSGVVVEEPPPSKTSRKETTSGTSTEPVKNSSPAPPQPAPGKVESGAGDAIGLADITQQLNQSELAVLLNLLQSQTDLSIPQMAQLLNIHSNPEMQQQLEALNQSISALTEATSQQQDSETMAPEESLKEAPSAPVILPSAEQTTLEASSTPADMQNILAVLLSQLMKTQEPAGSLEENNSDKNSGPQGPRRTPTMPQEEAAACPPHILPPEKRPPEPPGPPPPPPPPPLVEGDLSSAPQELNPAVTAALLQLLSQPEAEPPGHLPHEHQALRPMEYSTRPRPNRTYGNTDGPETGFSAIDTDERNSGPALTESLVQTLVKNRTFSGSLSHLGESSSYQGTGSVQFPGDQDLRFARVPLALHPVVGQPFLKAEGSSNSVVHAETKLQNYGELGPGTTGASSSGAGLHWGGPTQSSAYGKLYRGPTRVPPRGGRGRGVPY

[6] = molecular target: protein kinases (human kinome) (Homo sapiens, UniProt O43683)
Sequence of protein kinases (human kinome) (Homo sapiens, UniProt O43683) (O43683 whole entry): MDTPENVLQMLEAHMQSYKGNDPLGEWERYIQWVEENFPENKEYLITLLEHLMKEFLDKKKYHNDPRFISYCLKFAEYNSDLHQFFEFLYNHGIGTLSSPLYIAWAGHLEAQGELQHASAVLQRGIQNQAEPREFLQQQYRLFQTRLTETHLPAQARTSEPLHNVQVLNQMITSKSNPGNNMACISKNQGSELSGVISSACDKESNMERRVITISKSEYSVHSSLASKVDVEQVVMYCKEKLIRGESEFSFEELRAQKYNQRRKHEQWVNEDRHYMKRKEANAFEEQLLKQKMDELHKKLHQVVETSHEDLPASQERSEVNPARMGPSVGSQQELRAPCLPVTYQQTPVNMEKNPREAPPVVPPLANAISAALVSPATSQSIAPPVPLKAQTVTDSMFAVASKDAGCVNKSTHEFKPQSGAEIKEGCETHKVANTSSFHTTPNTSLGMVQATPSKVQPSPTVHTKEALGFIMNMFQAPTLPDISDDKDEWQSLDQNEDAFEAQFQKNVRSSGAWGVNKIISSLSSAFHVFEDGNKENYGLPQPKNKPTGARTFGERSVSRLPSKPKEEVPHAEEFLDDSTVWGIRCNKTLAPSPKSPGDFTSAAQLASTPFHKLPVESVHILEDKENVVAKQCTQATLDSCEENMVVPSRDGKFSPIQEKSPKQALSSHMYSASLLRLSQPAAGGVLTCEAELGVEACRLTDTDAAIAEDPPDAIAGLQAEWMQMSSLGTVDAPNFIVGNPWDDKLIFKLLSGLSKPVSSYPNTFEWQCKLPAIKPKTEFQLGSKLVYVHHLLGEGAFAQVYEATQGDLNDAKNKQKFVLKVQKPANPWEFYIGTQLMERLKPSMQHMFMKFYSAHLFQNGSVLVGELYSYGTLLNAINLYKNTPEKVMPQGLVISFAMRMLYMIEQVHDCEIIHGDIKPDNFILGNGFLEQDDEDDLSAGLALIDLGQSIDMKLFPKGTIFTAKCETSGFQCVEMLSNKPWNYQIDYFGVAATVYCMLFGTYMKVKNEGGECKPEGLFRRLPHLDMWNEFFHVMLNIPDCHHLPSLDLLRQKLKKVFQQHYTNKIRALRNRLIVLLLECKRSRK

[7] = molecular target: protein kinases (human kinome) (Homo sapiens, UniProt Q9HBH9)
Sequence of protein kinases (human kinome) (Homo sapiens, UniProt Q9HBH9) (Q9HBH9 whole entry): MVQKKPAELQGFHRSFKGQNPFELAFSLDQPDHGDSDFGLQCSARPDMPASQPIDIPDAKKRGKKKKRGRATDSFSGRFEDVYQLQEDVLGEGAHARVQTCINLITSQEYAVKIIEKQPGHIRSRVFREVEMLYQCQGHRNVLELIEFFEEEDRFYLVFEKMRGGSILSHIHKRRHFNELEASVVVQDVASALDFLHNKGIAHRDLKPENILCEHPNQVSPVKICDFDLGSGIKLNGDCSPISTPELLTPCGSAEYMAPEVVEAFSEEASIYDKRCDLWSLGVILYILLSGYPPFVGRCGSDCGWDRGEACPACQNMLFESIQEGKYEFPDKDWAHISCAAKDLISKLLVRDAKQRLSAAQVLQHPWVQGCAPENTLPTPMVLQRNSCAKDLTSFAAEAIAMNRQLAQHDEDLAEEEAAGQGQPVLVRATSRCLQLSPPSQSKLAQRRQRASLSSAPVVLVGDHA

[8] = molecular target: T1, protein kinases (human kinome) (Homo sapiens, UniProt Q8TAS1)
T1 sequence (Q8TAS1 1-419): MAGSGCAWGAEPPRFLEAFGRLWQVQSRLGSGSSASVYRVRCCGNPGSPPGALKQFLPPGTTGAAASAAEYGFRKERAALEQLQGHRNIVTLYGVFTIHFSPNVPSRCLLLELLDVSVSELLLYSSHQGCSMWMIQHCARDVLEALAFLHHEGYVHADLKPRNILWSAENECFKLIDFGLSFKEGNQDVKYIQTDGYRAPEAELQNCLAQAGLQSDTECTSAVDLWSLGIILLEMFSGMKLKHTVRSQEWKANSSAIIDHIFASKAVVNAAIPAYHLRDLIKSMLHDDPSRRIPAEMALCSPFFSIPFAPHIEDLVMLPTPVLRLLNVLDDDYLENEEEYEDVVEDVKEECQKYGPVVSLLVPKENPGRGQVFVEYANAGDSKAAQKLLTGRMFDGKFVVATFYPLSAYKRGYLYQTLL

[9] = molecular target: T2, protein kinases (human kinome) (Homo sapiens, UniProt Q12851); conditions: for logFC MAP4K2 (Q12851): direction down; for logFC: MAP4K2 (Q12851)
T2 sequence (Q12851 1-820): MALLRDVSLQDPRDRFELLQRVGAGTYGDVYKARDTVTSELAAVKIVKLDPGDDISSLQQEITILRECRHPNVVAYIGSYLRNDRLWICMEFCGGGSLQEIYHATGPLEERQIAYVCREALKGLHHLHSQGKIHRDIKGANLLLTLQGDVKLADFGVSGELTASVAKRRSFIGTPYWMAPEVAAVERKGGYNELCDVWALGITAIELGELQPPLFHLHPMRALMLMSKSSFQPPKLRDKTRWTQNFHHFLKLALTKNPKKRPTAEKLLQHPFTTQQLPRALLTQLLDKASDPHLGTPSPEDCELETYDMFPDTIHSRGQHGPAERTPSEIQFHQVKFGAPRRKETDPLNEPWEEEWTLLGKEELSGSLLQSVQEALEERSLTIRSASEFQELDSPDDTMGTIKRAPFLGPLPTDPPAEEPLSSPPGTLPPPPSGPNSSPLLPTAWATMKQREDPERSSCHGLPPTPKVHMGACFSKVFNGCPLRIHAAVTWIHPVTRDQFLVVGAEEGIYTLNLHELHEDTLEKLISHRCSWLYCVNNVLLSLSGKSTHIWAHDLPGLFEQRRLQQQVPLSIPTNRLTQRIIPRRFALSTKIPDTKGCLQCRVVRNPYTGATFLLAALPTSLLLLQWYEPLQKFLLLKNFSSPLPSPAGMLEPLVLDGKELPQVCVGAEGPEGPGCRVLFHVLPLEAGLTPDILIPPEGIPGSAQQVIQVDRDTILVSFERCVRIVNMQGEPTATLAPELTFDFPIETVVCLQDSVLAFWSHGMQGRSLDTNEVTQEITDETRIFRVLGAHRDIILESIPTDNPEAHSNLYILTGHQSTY

[10] = Experiment wp168, direction down

Sequence of protein kinases (human kinome) (Homo sapiens, UniProt Q16584) (Q16584 whole entry): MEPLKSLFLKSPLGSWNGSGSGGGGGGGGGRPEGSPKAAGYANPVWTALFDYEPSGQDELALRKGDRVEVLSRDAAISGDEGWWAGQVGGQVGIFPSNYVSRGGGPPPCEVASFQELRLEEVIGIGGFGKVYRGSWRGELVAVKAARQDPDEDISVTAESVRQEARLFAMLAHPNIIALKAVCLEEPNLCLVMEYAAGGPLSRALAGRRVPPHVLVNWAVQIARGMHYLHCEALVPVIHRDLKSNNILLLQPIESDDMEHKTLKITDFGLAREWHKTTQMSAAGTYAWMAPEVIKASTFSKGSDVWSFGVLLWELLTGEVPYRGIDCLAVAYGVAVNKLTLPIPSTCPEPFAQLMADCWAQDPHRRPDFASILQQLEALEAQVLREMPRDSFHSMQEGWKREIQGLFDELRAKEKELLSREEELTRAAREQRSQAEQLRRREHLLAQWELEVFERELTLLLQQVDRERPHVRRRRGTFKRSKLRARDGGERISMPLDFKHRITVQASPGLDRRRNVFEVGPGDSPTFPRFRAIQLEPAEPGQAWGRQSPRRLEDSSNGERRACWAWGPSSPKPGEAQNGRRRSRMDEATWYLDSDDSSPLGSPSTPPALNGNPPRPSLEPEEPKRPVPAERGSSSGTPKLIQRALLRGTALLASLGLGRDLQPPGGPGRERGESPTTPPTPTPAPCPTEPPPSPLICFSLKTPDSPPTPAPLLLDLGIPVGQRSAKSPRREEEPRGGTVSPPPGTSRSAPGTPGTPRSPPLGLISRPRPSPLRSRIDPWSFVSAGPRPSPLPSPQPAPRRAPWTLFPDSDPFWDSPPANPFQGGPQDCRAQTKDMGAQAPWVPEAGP

## CS(=O)(=O)Nc1cccc(-c2csc3cnc(Nc4ccc(N5CCN(CCCCCOc6cccc7c6C(=O)N(C6CCC(=O)NC6=O)C7=O)CC5)cc4)nc23)c1 (stereo not drawn) [DB0614, N-(3-(2-((4-(4-(5-((2-(2,6-Dioxopiperidin-3-yl)-1,3-dioxoisoindolin-4-yl)oxy)pentyl)piperazin-1-yl)phenyl)amino)thieno[3,2-d]pyrimidin-7-yl)phenyl)methanesulfonamide]
[1]; experiment wp117
  logFC MAP3K11 (Q16584): −0.7291

## CC(C)S(=O)(=O)c1ccccc1Nc1nc(Nc2ccc(N3CCN(CCOCCOCCC(=O)NCCNc4cccc5c4CN(C4CCC(=O)NC4=O)C5=O)CC3)cc2)ncc1Cl (stereo not drawn) [TL13.97]
[2]
  logFC: −1.05
[2]; experiment wp137
  logFC CDK7: −1.05
[3]; direction down, experiment wp137
  logFC LIMK1: −1.173
[3]; experiment wp137, down
  logFC LIMK1: −1.173
[1]; experiment wp137
  logFC MAP3K11 (Q16584): −0.7626

## CC(C)S(=O)(=O)c1ccccc1Nc1nc(Nc2ccc(N3CCN(CCOCCNC(=O)CNc4ccc5c(c4)C(=O)N(C4CCC(=O)NC4=O)C5=O)CC3)cc2)ncc1Cl (stereo not drawn) [SK.3.93]
[2]
  logFC: −0.8057
[2]; experiment wp016
  logFC CDK7: −0.8057
[4]; Accession Q00537
  logFC of CDK17: −0.7103
[4]; direction of change down
  logFC CDK17 (Q00537): −0.7103
[5]; Accession Q9NYV4-1, experiment wp016
  logFC CDK12: −0.9555
[5]; CDK12 (Q9NYV4-1), experiment wp016
  logFC CDK12: −0.9555

## Cc1ccc(NC(=O)c2cccc(C(F)(F)F)c2)cc1N1Cc2cnc(Nc3ccc(N4CCN(CCCOc5cccc6c5C(=O)N(C5CCC(=O)NC5=O)C6=O)CC4)nc3)nc2N(C)C1=O (stereo not drawn) [DB0662]
[6]; BUB1 (O43683), experiment wp168
  logFC: −0.3382
[6]; [10]
  logFC BUB1 (O43683): −0.3382
[7]; [10]
  logFC MKNK2 (Q9HBH9-1): −0.4185
[7]; MKNK2 (Q9HBH9-1), experiment wp168
  logFC: −0.4185
[8]; Accession Q8TAS1, experiment wp168, direction down
  logFC UHMK1: −0.3949
[8]; UHMK1 (Q8TAS1), experiment wp168
  logFC UHMK1: −0.3949
[3]; direction down, experiment wp168
  logFC LIMK1: −1.911
[3]; experiment wp168, down
  logFC LIMK1: −1.911
[1]; experiment wp168
  logFC MAP3K11 (Q16584): −0.7288

## Cc1ncsc1-c1ccc([C@H](C)NC(=O)[C@@H]2C[C@@H](O)CN2C(=O)[C@@H](NC(=O)CCOCCOCCN2CCN(c3ccc(Nc4ncc(Cl)c(Nc5ccccc5S(=O)(=O)C(C)C)n4)cc3)CC2)C(C)(C)C)cc1 [FMF.06.098.1]
[9]; Experiment wp108
  logFC MAP4K2 (Q12851): −0.5507
[9]; Experiment wp131
  logFC MAP4K2 (Q12851): −0.6092
[9]; experiment wp108
  logFC: −0.5507
[9]; experiment wp131
  logFC: −0.6092
[2]
  logFC: −0.9016 and −1.137 and −0.9756
[2]; experiment wp108
  logFC CDK7: −0.9016
[2]; experiment wp114
  logFC CDK7: −1.137
[2]; experiment wp131
  logFC CDK7: −0.9756
[8]; Accession Q8TAS1, experiment wp108, direction down
  logFC UHMK1: −0.3878
[8]; UHMK1 (Q8TAS1), experiment wp108
  logFC UHMK1: −0.3878
[5]; Accession Q9NYV4-1, experiment wp131
  logFC CDK12: −0.5732
[5]; CDK12 (Q9NYV4-1), experiment wp131
  logFC CDK12: −0.5732
